Experimental findings from patent US20120208809A1, “9H-PYRROLO[2,3-B: 5,4-C'] DIPYRIDINE AZACARBOLINE DERIVATIVES, PREPARATION THEREOF, AND THERAPEUTIC USE THEREOF” (SANOFI, priority 2009, published 2012) are described below.

One test addresses T1, Pim-1 (Homo sapiens, UniProt P11309).
T1 construct: full-length human recombinant His6-labelled Pim-1, Pim-2 or Pim-3 protein; His6; made in house
The test is described as follows: TR-FRET assay of Pim kinase activity (phosphorylation of Bad Ser112), Pim-1. Format: biochemical. As to conditions: ATP 40 μM, read-out: IC50 Pim1. The procedure, abridged:
(§1)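 Full-length His6-tagged human Pim-1, -2 or -3 phosphorylate full-length His6-Bad at 40 μM ATP; phospho-Ser112 detected by TR-FRET (Eu anti-phosphoBad, APC anti-His6), 665/615 nm ratio. Compounds run at 10 concentrations in duplicate, typically top 30 μM; IC50 from 4-parameter logistic fit.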
On the technique in general: Time-resolved FRET reads energy transfer from a long-lived donor to a nearby acceptor.

The next test deals with T2, Pim-2 (Homo sapiens, UniProt Q9P1W9).
T2 construct: full-length human recombinant His6-labelled Pim-1, Pim-2 or Pim-3 protein; His6; made in house
T2 sequence (Q9P1W9 whole entry): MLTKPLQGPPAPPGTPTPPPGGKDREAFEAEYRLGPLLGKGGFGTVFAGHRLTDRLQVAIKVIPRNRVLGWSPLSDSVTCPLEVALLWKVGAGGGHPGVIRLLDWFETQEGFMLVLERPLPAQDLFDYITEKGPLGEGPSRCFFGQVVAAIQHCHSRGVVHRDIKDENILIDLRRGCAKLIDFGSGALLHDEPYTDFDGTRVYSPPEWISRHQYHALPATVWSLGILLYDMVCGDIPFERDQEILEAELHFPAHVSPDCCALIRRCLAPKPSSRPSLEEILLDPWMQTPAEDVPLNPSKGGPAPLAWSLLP
The test is described as follows: TR-FRET assay of Pim kinase activity (phosphorylation of Bad Ser112), Pim-2. It is filed as biochemical. Conditions: ATP 40 μM, read-out: IC50 Pim2. A digest of the protocol:
as §1

A further test has as its target T3, Pim-3 (Homo sapiens, UniProt Q86V86).
T3 construct: full-length human recombinant His6-labelled Pim-1, Pim-2 or Pim-3 protein; His6; made in house
In words: TR-FRET assay of Pim kinase activity (phosphorylation of Bad Ser112), Pim-3. Format: biochemical. As to conditions: ATP 40 μM, read-out: IC50 Pim3. The procedure, abridged:
as §1

The target of the next test is CDK1 (Homo sapiens, UniProt P06493). The test is described as follows: Biochemical results, IC50 CDK1.
CDK1, sequence (P06493 whole entry, species assumed): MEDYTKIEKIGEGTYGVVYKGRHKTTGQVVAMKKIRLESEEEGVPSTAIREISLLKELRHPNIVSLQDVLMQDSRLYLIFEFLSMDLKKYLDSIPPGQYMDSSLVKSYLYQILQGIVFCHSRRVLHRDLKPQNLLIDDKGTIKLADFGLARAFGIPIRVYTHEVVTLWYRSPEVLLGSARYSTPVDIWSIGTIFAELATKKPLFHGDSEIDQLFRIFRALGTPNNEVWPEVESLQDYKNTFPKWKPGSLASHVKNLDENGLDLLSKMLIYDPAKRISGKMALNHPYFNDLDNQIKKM
CDK1, sequence (P14635 whole entry partner, species assumed): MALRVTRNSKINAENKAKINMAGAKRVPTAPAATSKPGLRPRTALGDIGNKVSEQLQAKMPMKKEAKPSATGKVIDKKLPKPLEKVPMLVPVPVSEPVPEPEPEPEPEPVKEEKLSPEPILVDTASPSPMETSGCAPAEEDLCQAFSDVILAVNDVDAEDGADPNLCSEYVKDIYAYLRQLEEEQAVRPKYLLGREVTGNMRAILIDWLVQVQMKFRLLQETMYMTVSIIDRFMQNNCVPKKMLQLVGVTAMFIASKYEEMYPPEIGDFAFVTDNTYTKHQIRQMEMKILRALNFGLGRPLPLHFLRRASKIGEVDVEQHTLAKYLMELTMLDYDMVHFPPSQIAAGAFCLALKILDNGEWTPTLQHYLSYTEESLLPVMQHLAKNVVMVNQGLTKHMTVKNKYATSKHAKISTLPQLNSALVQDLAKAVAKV
The next test has as its target PLK1 (Homo sapiens, UniProt P53350). In words: Biochemical results, IC50 PLK1.
The next test relates to EOL-1. The test is described as follows: Cell viability assay (CellTiter-Blue), EOL-1.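 Also: EOL-1 is an acute myeloid eosinophilic leukaemia line not a lymphoma.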 Format: cell-based. Conditions: Homo sapiens, EOL1, read-out: EC50 EOL-1 μM (eosinophilic leukaemia), EOL-1 cells, read-out: EC50 EOL-1 μM (lymphoma). The text has this: (§2) The representative compounds of the invention are also screened as regards their effects on cell proliferation and viability, using a variety of tumoral cell lines of human source, representative of different pathological indications. These cell lines include:
Models of Haematological Cancers: • TF-1 (acute myelogenic leukaemia; AML M6 at the time of diagnosis); • K G-1 (AML; erythroleukaemia evolving into AML); • KG-1a (AML; subclone derived from immature KG-1); • EOL-1 (AML: eosinophilic leukaemia); • PL-21 (AML; M3); • ML-2 (AML; T-NHL evolving into T-ALL evolving into AML M4); • HL-60 (AML, M3); • Kasumi-1 (AML); • GDM-1 (AML); • K-562 (CML—chronic myelogenic leukaemia; blastic crisis); • JURL-MK1 (CML; blastic crisis); • DND-41 (T-ALL—T-cell acute lymphoblastic leukaemia); • Jurkat (T-ALL); NALM-6 (B-ALL B-cell ALL); • CEM (ALL; lymphosarcoma evolving into ALL); • Jeko-1 (B-NHL—B-cell non-Hodgkin lymphoma; lymphoma with coat cells derived from a large-cell variant in leukaemic transformation); • WSU-DLCL2 (B-NHL; diffuse lymphoma with large B cells); • RL (B-NHL; undifferentiated diffuse); • OCl-Ly10 (B-NHL); • DoHH-2 (B-NHL); • RPMI-8226 (MM—multiple myelomas); • JVM-2 (B-CLL—B-cell chronic lymphocytic leukaemia); and • JVM-3 (B-CLL).
(§3) In order to measure the viability, the tumour cells are incubated in 96-well or 384-well format for 48, 72 or 96 hours, preferably 72 hours, with a compound of the invention at dilutions of a factor 3, with, in general, nine doses in total, the highest dose being equal to 10 μM or 30 μM. The cell viability is evaluated by adding CellTiter-Blue® (Promega, Madison, Wis., United States) for 4 hours and endpoint readings are taken using a SpectraMax Genmini EM plate reader (Molecular Devices, Sunnyvale, Calif., United States). The CellTiter-Blue® cell viability assay measures the ability of the cells in culture to reduce resazurin to resorufin, the intensity of the fluorescence signal being directly proportional to the number of live cells. The EC50 represents the concentration of compound that leads to a 50% reduction of the viability/proliferative expansion of the cells.

The subject of another test is MV4-11. The test is described as follows: Cell viability assay (CellTiter-Blue), MV4-11. Format: cell-based. Conditions: Homo sapiens, read-out: EC50 MV4-11 μM (acute myeloid leukemia), MV4-11 cells, read-out: EC50 MV4-11 μM (myeloma). Here is the method: as §2, §3
A general note: Alamar Blue is a resazurin reagent that responds to reducing activity.

For the next test, the system named is MOLM-13. In words: Cell viability assay (CellTiter-Blue), MOLM-13. It is filed as cell-based. Conditions: Homo sapiens, read-out: EC50 MOLM-13 μM, MOLM-13 cells, read-out: EC50 MOLM-13 μM (myeloma). Here is the method: as §2, §3
A further test relates to phosphoBAD (JEKO). The test is described as follows: Level of phosphorylation of Bad by ELISA, JEKO cell line. Format: cell-based. Conditions: Homo sapiens, JEKO cells, 3 hours at 37° C. The method, then: The activity of the molecules is evaluated on the JEKO or DND-41 cell line by measuring the level of phosphorylation of Bad and the total Bad content, via the ELISA technique.
The JEKO or DND-41 cells are resuspended at a concentration of 500 000 cells per ml. The cells are then diluted in RPMI-1640 medium containing 20% foetal calf serum. 225 μl of cells are placed in a plate. Serial dilutions of the molecules are then performed (8 points, three-fold dilution, range started at 10 mM). Each dilution point is then diluted to 1/100 in medium. Next, 25 μl of each of the concentrations are added to the cells and then incubated for 3 hours at 37° C.
100 μl of the cells are transferred into a plate treated with poly-D-Lysine. The plate is then incubated for 5-10 minutes at 37° C. and then centrifuged for 5 minutes at 1500 rpm. A volume of 100 μl of 8% fixing solution (solution of formaldehyde in PBS buffer) is added to each of the wells. After covering with a self-adhesive film and a lid, the plate is incubated for 20 minutes at room temperature and then stored at 4° C. overnight.
Next, the liquid is removed and two successive washes are performed with washing buffer. 100 μl of quenching buffer are added, followed by incubating for 15 minutes at room temperature. After washing, 100 μl of […] at room temperature. After washing, 50 μl of primary antibody diluted to 1/250 for pBAD (Cell Signaling Cat#5284) and to 1/500 for Bad (MBL Cat#591) are added to each of the plates. Each plate is incubated for 2 hours at room temperature. After two washes, 50 μl of secondary antibody (diluted to 1/16) are added to the pBAD plate (tebu-bio ref; FE-021) and 50 μl of the HRP-conjugated IgG secondary antibody (Santa Cruz Cat #SC-2004; diluted to 1/1000) are added to the Bad plate. Incubation for 1 hour at room temperature is performed. Four washes with the washing solution are performed, followed by three washes with PBS. Finally, 100 μl of the developing solution are added, followed by incubation for 10 minutes. Finally, 100 μl of the quenching solution are added, before reading at 450 nm.
(In general: ELISA stands for enzyme-linked immunosorbent assay.)

The IC50 is the concentration that inhibits the measured activity by half. For orientation: EC50 means the concentration giving half of the maximal effect.

Where only a bound is given, the exact number is not on record here.

T1 sequence (P11309 whole entry): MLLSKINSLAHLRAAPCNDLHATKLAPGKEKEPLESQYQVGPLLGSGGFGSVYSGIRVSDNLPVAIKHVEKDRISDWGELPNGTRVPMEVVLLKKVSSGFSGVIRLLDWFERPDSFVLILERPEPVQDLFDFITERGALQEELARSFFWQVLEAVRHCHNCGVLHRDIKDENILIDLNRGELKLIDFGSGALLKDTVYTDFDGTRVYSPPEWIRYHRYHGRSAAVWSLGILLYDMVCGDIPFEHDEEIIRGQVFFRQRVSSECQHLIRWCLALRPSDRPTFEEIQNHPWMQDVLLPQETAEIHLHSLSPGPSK
PLK1, sequence (P53350 whole entry, species assumed): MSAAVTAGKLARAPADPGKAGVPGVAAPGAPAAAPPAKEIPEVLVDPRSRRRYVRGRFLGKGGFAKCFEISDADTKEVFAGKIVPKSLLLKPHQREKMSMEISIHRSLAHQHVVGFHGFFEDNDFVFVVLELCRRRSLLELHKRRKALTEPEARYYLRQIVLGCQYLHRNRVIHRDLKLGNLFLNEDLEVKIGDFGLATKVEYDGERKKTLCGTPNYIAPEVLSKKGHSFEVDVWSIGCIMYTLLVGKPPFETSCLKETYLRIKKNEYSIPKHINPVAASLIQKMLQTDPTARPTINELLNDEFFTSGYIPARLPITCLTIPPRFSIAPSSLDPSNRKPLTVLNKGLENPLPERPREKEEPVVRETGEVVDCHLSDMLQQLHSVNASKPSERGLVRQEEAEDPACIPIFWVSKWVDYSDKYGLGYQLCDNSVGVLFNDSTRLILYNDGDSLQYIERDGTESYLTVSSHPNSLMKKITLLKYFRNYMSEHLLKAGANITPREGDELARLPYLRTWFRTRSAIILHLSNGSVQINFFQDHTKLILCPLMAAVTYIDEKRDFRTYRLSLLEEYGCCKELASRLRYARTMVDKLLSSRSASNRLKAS

For the compound `CN1CCN(NC(=O)c2ccc(-c3c(F)cnc4[nH]c5cnc(-c6cccnc6)cc5c34)cc2)CC1` [Example 7, 4-[3-fluoro-6-(pyridin-3-yl)-9H-pyrrolo[2,3-b:5,4-c′]dipyridin-4-yl]-N-(4-methylpiperazin-1-yl)benzamide], the IC50 on Pim-1 is less than 100 nM; at Pim-2, 100 to 1000 nM; at Pim-3, less than 100 nM; on CDK1, 1000 to 5000 nM; against PLK1, 100 to 1000 nM. Further, the EC50 was less than 100 nM in the test with EOL-1, 100 to 1000 nM in the test with MV4-11 and 100 to 1000 nM in the test with MOLM-13.

Consider `O=C(NCCCN1CCCC1)c1ccc(-c2c(F)cnc3[nH]c4cnc(-c5cccnc5)cc4c23)cc1` [Example 20, 4-[3-fluoro-6-(pyridin-3-yl)-9H-pyrrolo[2,3-b:5,4-c′]dipyridin-4-yl]-N-[3-(pyrrolidin-1-yl)propyl]benzamide], for which the IC50 at Pim-1 was less than 100 nM; on Pim-2, 100 to 1000 nM; at Pim-3, less than 100 nM; at CDK1, 100 to 1000 nM; on PLK1, 100 to 1000 nM. Moreover, the EC50 in the test on EOL-1 and with MOLM-13 was 100 to 1000 nM in each case.

With `CC(C)(N)CNC(=O)c1ccc(-c2c(F)cnc3[nH]c4cnc(-c5cccnc5)cc4c23)cc1` [Example 26, N-(2-amino-2-methylpropyl)-4-[3-fluoro-6-(pyridin-3-yl)-9H-pyrrolo[2,3-b:5,4-c′]dipyridin-4-yl]benzamide], the IC50 was less than 100 nM at Pim-1; less than 100 nM at Pim-2; less than 100 nM on Pim-3; 1000 to 5000 nM against CDK1; 100 to 1000 nM on PLK1; 1000 to 5000 nM with phosphoBAD (JEKO).

`CN(C)CCCNC(=O)c1ccc(-c2c(F)cnc3[nH]c4cnc(-c5cccnc5)cc4c23)cc1` [Example 10, N-[3-(dimethylamino)propyl]-4-[3-fluoro-6-(pyridin-3-yl)-9H-pyrrolo[2,3-b:5,4-c′]dipyridin-4-yl]benzamide]: the IC50 at Pim-1 is less than 100 nM; on Pim-2, 100 to 1000 nM; at Pim-3, less than 100 nM; on CDK1, 1000 to 5000 nM; on PLK1 it was 1000 to 5000 nM. Further, the EC50 in the test on EOL-1, in the test on MV4-11 and in the test with MOLM-13 was 100 to 1000 nM in each case.

On to `CN(C)CCNC(=O)c1cccc(-c2c(F)cnc3[nH]c4cnc(-c5cccnc5)cc4c23)c1` [Example 12, N-[2-(dimethylamino)ethyl]-3-[3-fluoro-6-(pyridin-3-yl)-9H-pyrrolo[2,3-b:5,4-c′]dipyridin-4-yl]benzamide], for which the IC50 was less than 100 nM at Pim-1; 1000 to 5000 nM at Pim-2; less than 100 nM at Pim-3; 1000 to 5000 nM against CDK1; 1000 to 5000 nM on PLK1. The figures for the EC50 in the test on EOL-1, in the test on MV4-11 and in the test with MOLM-13 were 100 to 1000 nM, 1000 to 5000 nM and 100 to 1000 nM, respectively.

For `O=C(NC1CC1)c1ccc(-c2c(F)cnc3[nH]c4cnc(-c5cccnc5)cc4c23)cc1` [Example 11, N-cyclopropyl-4-[3-fluoro-6-(pyridin-3-yl)-9H-pyrrolo[2,3-b:5,4-c′]dipyridin-4-yl]benzamide], the IC50 on Pim-1 was less than 100 nM; at Pim-2, 1000 to 5000 nM; on Pim-3, 100 to 1000 nM; in the test with phosphoBAD (JEKO), 100 to 1000 nM.

Turning to `CN(C)CCCNC(=O)c1ccc(-c2c(F)cnc3[nH]c4cnc(-c5cnn(C)c5)cc4c23)cc1` [Example 38], the IC50 at Pim-1 is less than 100 nM; on Pim-2 it was less than 100 nM; on Pim-3 it was less than 100 nM; against CDK1, 100 to 1000 nM; against PLK1, 1000 to 5000 nM. Moreover, the EC50 in the test on EOL-1 is less than 100 nM; in the test with MV4-11, 100 to 1000 nM; in the test with MOLM-13 it was 100 to 1000 nM.

For the compound `O=C(NCCCN1CCOCC1)c1ccc(-c2c(F)cnc3[nH]c4cnc(-c5cccnc5)cc4c23)cc1` [Example 19, 4-[3-fluoro-6-(pyridin-3-yl)-9H-pyrrolo[2,3-b:5,4-c′]dipyridin-4-yl]-N-[3-(morpholin-4-yl)propyl]benzamide], the IC50 on Pim-1 was less than 100 nM; at Pim-2 it was 100 to 1000 nM; at Pim-3, less than 100 nM; at CDK1 it was 1000 to 5000 nM; on PLK1 it was 100 to 1000 nM. For the same compound, the EC50 in the test on EOL-1 and in the test with MOLM-13 was 100 to 1000 nM throughout.

As for `O=C(NCCN1CCOCC1)c1ccc(-c2c(F)cnc3[nH]c4cnc(-c5cccnc5)cc4c23)cc1` [Example 21, 4-[3-fluoro-6-(pyridin-3-yl)-9H-pyrrolo[2,3-b:5,4-c′]dipyridin-4-yl]-N-[2-(morpholin-4-yl)ethyl]benzamide], the IC50 at Pim-1 was less than 100 nM; on Pim-2, 1000 to 5000 nM; at Pim-3, less than 100 nM; against CDK1, 100 to 1000 nM; against PLK1, 1000 to 5000 nM. Also, the EC50 in the test with EOL-1, with MV4-11 and in the test on MOLM-13 was 100 to 1000 nM throughout.

`CN1CCC(NC(=O)c2ccc(-c3c(F)cnc4[nH]c5cnc(-c6cccnc6)cc5c34)cc2)CC1` [Example 22, 4-[3-fluoro-6-(pyridin-3-yl)-9H-pyrrolo[2,3-b:5,4-c′]dipyridin-4-yl]-N-(1-methylpiperidin-4-yl)benzamide]: the IC50 at Pim-1 is less than 100 nM; on Pim-2, 100 to 1000 nM; at Pim-3, less than 100 nM; at CDK1, 1000 to 5000 nM; on PLK1 it was 1000 to 5000 nM; in the test on phosphoBAD (JEKO), 1000 to 5000 nM. The EC50 in the test with EOL-1 and in the test on MV4-11 was 100 to 1000 nM throughout.
